Data published in patent US10722514B2 (FLX Bio, Inc., priority 2017, dated 2020).

Molecular target: T1, recombinant full-length USP7 (Homo sapiens, UniProt Q93009)
T1 construct: A 25 μl reaction volume containing recombinant full-length USP7 (62 pM)
Test: USP7-mediated ubiquitin-rhodamine cleavage assay
Format: biochemical
Conditions: recombinant full-length USP7 62 pM; ubiquitin-rhodamine 100 nM; 30-minute incubation with compound, 1 hour reaction at room temperature; read-out: Potency: USP7 IC50
Outline: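 Enzyme 62 pM; HEPES pH 7.3/150 mM NaCl/1 mM TCEP/125 μg/ml BSA; 1% DMSO; 30 min cpd preinc RT; Ub-rhodamine 100 nM, 1 h RT, dark; acetic acid stop; fluorescence; IC50 4-param fit.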

T1 sequence (Q93009 whole entry): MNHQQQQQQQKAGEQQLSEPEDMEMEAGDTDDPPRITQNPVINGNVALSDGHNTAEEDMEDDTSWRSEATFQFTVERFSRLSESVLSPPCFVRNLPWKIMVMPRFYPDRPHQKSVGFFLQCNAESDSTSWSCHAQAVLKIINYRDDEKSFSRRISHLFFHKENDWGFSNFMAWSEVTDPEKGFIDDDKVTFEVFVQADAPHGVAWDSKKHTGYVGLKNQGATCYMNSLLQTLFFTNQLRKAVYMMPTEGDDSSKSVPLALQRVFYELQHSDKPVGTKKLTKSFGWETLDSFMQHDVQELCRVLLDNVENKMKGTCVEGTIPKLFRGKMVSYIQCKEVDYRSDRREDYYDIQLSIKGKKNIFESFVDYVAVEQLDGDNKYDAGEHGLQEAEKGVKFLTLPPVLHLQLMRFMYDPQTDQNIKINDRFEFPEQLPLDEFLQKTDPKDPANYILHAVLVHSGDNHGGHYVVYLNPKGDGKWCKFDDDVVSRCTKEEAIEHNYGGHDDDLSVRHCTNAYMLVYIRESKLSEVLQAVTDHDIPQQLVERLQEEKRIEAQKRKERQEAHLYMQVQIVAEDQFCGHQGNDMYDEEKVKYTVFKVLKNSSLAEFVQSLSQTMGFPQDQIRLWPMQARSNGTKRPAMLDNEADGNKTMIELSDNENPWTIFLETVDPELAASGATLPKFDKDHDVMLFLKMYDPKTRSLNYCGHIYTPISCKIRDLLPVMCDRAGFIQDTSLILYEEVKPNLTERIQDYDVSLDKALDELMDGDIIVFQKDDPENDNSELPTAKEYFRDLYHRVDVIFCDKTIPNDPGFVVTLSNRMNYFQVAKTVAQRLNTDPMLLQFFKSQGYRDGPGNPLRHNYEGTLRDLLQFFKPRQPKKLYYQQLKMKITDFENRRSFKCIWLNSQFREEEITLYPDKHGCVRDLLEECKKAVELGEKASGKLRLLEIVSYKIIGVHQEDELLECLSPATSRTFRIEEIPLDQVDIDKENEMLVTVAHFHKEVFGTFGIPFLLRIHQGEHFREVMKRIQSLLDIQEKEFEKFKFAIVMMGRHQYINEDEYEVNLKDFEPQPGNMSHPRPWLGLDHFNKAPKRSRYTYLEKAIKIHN

IC50	SMILES
1000 to 10000 nM	Cc1cc(Cl)cc(-c2ccnc3cc(CN4C(=O)CCC4=O)sc23)c1O[C@@H]1CN[C@@H](C(F)F)C1 [Example 125, 1-((7-(5-Chloro-2-(((3S,5R)-5-(difluoromethyl)pyrrolidin-3-yl)oxy)-3-methylphenyl)thieno[3,2-b]pyridin-2-yl)methyl)pyrrolidine-2,5-dione]
< 1000 nM	Cc1cc(Cl)cc(-c2ccnc3cc(CN4C(=O)CCC4=O)sc23)c1O[C@@H]1CC[C@@H](N)C1 [Example 126, 1-((7-(2-(((1R,3R)-3-Aminocyclopentyl)oxy)-5-chloro-3-methylphenyl)thieno[3,2-b]pyridin-2-yl)methyl)pyrrolidine-2,5-dione]
< 1000 nM	Cc1cc(Cl)cc(-c2ccnc3cc(CN4C(=O)CCC4=O)sc23)c1O[C@H]1CC[C@H](N)C1 [Example 127, 1-((7-(2-(((1S,3S)-3-Aminocyclopentyl)oxy)-5-chloro-3-methylphenyl)thieno[3,2-b]pyridin-2-yl)methyl)pyrrolidine-2,5-dione]
< 1000 nM	Cc1cc(Cl)cc(-c2ncnc3cc(CN4C(=O)CSC4=O)sc23)c1O[C@@H]1CNC[C@@H]1F [Example 129, 3-((4-(5-Chloro-2-(((3R,4S)-4-fluoropyrrolidin-3-yl)oxy)-3-methylphenyl)thieno[3,2-d]pyrimidin-6-yl)methyl)thiazolidine-2,4-dione]
< 1000 nM	Cc1cc(Cl)cc(-c2ccnc3cc(CN4C(=O)CCC4=O)sc23)c1OC1CNC(C)(C)C1 (stereo not drawn) [Example 130, 1-((7-(5-Chloro-2-((5,5-dimethylpyrrolidin-3-yl)oxy)-3-methylphenyl)thieno[3,2-b]pyridin-2-yl)methyl)pyrrolidine-2,5-dione]
< 1000 nM	Cc1cc(Cl)cc(-c2ncnc3cc(CN4C(=O)CCCC4=O)sc23)c1O[C@@H]1CNC[C@@H]1F [Example 134, 1-((4-(5-Chloro-2-(((3R,4S)-4-fluoropyrrolidin-3-yl)oxy)-3-methylphenyl)thieno[3,2-d]pyrimidin-6-yl)methyl)piperidine-2,6-dione]
< 1000 nM	Cc1cc(C(F)(F)F)cc(-c2ccnc3cc(Cn4c(=O)[nH]cc(F)c4=O)sc23)c1O[C@@H]1CNC[C@@H]1F [Example 136, 5-Fluoro-3-((7-(2-(((3R,4S)-4-fluoropyrrolidin-3-yl)oxy)-3-methyl-5-(trifluoromethyl)phenyl)thieno[3,2-b]pyridin-2-yl)methyl)pyrimidine-2,4(1H,3H)-dione]
< 1000 nM	CC[C@@H](c1cc2nccc(-c3cc(Cl)cc(C)c3O[C@@H]3CNC[C@@H]3F)c2s1)N1C(=O)CCC1=O [Example 137, 1-((S)-1-(7-(5-Chloro-2-(((3R,4S)-4-fluoropyrrolidin-3-yl)oxy)-3-methylphenyl)thieno[3,2-b]pyridin-2-yl)propyl)pyrrolidine-2,5-dione]
< 1000 nM	Cc1cc(Cl)cc(-c2ccnc3cc(CN4C(=O)C5CCCC5C4=O)sc23)c1O[C@@H]1CNC[C@@H]1F (stereo partly drawn) [Example 141, 2-((7-(5-Chloro-2-(((3R,4S)-4-fluoropyrrolidin-3-yl)oxy)-3-methylphenyl)thieno[3,2-b]pyridin-2-yl)methyl)tetrahydrocyclopenta[c]pyrrole-1,3(2H,3aH)-dione]
< 1000 nM	Cc1cc(Cl)cc(-c2ccnc3cc(CN4C(=O)C5CCCCC5C4=O)sc23)c1O[C@@H]1CNC[C@@H]1F (stereo partly drawn) [Example 142, 2-((7-(5-Chloro-2-(((3R,4S)-4-fluoropyrrolidin-3-yl)oxy)-3-methylphenyl)thieno[3,2-b]pyridin-2-yl)methyl)hexahydro-1H-isoindole-1,3(2H)-dione]
< 1000 nM	Cc1cc(Cl)cc(-c2ncnc3cc(CN4C(=O)CN(C)C4=O)sc23)c1O[C@@H]1CNC[C@@H]1F [Example 146, 3-((4-(5-Chloro-2-(((3R,4S)-4-fluoropyrrolidin-3-yl)oxy)-3-methylphenyl)thieno[3,2-d]pyrimidin-6-yl)methyl)-1-methylimidazolidine-2,4-dione]
10000 to 30000 nM	Cc1cc(Cl)cc(-c2ncnc3cc(Cn4c(C(F)(F)F)cccc4=O)sc23)c1O[C@@H]1CNC[C@@H]1F [Example 148, 1-((4-(5-Chloro-2-(((3R,4S)-4-fluoropyrrolidin-3-yl)oxy)-3-methylphenyl)thieno[3,2-d]pyrimidin-6-yl)methyl)-6-(trifluoromethyl)pyridin-2(1H)-one]
< 1000 nM	Cc1cc(Cl)cc(-c2ccnc3cc(CN4C(=O)CCN(C)C4=O)sc23)c1O[C@@H]1CNC[C@@H]1F [Example 150, 3-((7-(5-Chloro-2-(((3R,4S)-4-fluoropyrrolidin-3-yl)oxy)-3-methylphenyl)thieno[3,2-b]pyridin-2-yl)methyl)-1-methyldihydropyrimidine-2,4(1H,3H)-dione]

Second part, the molecule before the results:

SMILES	IC50
Cc1cc(Cl)cc(-c2ccnc3cc(CN4C(=O)CCC4=O)sc23)c1O[C@@H]1CN(C)C[C@@H]1F [Example 124, 1-((7-(5-Chloro-2-(((3R,4S)-4-fluoro-1-methylpyrrolidin-3-yl)oxy)-3-methylphenyl)thieno[3,2-b]pyridin-2-yl)methyl)pyrrolidine-2,5-dione]	< 1000 nM
Cc1cc(Cl)cc(-c2ncnc3cc(CN4C(=O)COC4=O)sc23)c1O[C@@H]1CNC[C@@H]1F [Example 128, 3-((4-(5-Chloro-2-(((3R,4S)-4-fluoropyrrolidin-3-yl)oxy)-3-methylphenyl)thieno[3,2-d]pyrimidin-6-yl)methyl)oxazolidine-2,4-dione]	< 1000 nM
Cc1cc(C(F)(F)F)cc(-c2ccnc3cc(CN4C(=O)C5CC5C4=O)sc23)c1O[C@@H]1CNC[C@@H]1F (stereo partly drawn) [Example 131, 3-((7-(2-(((3R,4S)-4-Fluoropyrrolidin-3-yl)oxy)-3-methyl-5-(trifluoromethyl)phenyl)thieno[3,2-b]pyridin-2-yl)methyl)-3-azabicyclo[3.1.0]hexane-2,4-dione]	< 1000 nM
Cc1cc(C(F)(F)F)cc(-c2ccnc3cc(Cn4c(=O)ccn(C)c4=O)sc23)c1O[C@@H]1CNC[C@@H]1F [Example 132, 3-((7-(2-(((3R,4S)-4-Fluoropyrrolidin-3-yl)oxy)-3-methyl-5-(trifluoromethyl)phenyl)thieno[3,2-b]pyridin-2-yl)methyl)-1-methylpyrimidine-2,4(1H,3H)-dione]	< 1000 nM
Cc1cc(Cl)cc(-c2ccnc3cc(CN4C(=O)OC(C)(C)C4=O)sc23)c1O[C@@H]1CNC[C@@H]1F [Example 133, 3-((7-(5-Chloro-2-(((3R,4S)-4-fluoropyrrolidin-3-yl)oxy)-3-methylphenyl)thieno[3,2-b]pyridin-2-yl)methyl)-5,5-dimethyloxazolidine-2,4-dione]	< 1000 nM
N#Cc1cc(-c2ccnc3cc(CN4C(=O)CCC4=O)sc23)c(O[C@@H]2CNC[C@@H]2F)cc1F [Example 135, 5-(2-((2,5-Dioxopyrrolidin-1-yl)methyl)thieno[3,2-b]pyridin-7-yl)-2-fluoro-4-(((3R,4S)-4-fluoropyrrolidin-3-yl)oxy)benzonitrile]	1000 to 10000 nM
Cc1cc(Cl)cc(-c2ccnc3cc(CN4C(=O)C5CCCCN5C4=O)sc23)c1O[C@@H]1CNC[C@@H]1F (stereo partly drawn) [Example 138, 2-((7-(5-Chloro-2-(((3R,4S)-4-fluoropyrrolidin-3-yl)oxy)-3-methylphenyl)thieno[3,2-b]pyridin-2-yl)methyl)tetrahydroimidazo[1,5-a]pyridine-1,3(2H,5H)-dione]	< 1000 nM
Cc1cc(Cl)cc(-c2ccnc3cc(CCN4C(=O)c5ccccc5S4(=O)=O)sc23)c1O[C@@H]1CNC[C@@H]1F [Example 139, 2-(2-(7-(5-Chloro-2-(((3R,4S)-4-fluoropyrrolidin-3-yl)oxy)-3-methylphenyl)thieno[3,2-b]pyridin-2-yl)ethyl)benzo[d]isothiazol-3(2H)-one 1,1-dioxide]	10000 to 30000 nM
Cc1cc(Cl)cc(-c2ccnc3cc(CCOC4=NS(=O)(=O)c5ccccc54)sc23)c1O[C@@H]1CNC[C@@H]1F [Example 140, 3-(2-(7-(5-Chloro-2-(((3R,4S)-4-fluoropyrrolidin-3-yl)oxy)-3-methylphenyl)thieno[3,2-b]pyridin-2-yl)ethoxy)benzo[d]isothiazole 1,1-dioxide]	10000 to 30000 nM
Cc1cc(Cl)cc(-c2ccnc3cc(CN4C(=O)C5CCCN5C4=O)sc23)c1O[C@@H]1CNC[C@@H]1F (stereo partly drawn) [Example 143, 2-((7-(5-Chloro-2-(((3R,4S)-4-fluoropyrrolidin-3-yl)oxy)-3-methylphenyl)thieno[3,2-b]pyridin-2-yl)methyl)tetrahydro-1H-pyrrolo[1,2-c] imidazole-1,3(2H)-dione]	< 1000 nM
Cc1cc(Cl)cc(-c2ccnc3cc(CN4C(=O)CN(C)C4=O)sc23)c1O[C@@H]1CNC[C@@H]1F [Example 144, 3-((7-(5-Chloro-2-(((3R,4S)-4-fluoropyrrolidin-3-yl)oxy)-3-methylphenyl)thieno[3,2-b]pyridin-2-yl)methyl)-1-methylimidazolidine-2,4-dione]	1000 to 10000 nM
Cc1cc(Cl)cc(-c2ccnc3cc(CN4C(=O)SC(C)(C)C4=O)sc23)c1O[C@@H]1CNC[C@@H]1F [Example 145, 3-((7-(5-Chloro-2-(((3R,4S)-4-fluoropyrrolidin-3-yl)oxy)-3-methylphenyl)thieno[3,2-b]pyridin-2-yl)methyl)-5,5-dimethylthiazolidine-2,4-dione]	< 1000 nM
Cc1cc(Cl)cc(-c2ccnc3cc(CN4C(=O)CCC4C(F)(F)F)sc23)c1O[C@@H]1CNC[C@@H]1F (stereo partly drawn) [Example 147, 1-((7-(5-Chloro-2-(((3R,4S)-4-fluoropyrrolidin-3-yl)oxy)-3-methylphenyl)thieno[3,2-b]pyridin-2-yl)methyl)-5-(trifluoromethyl)pyrrolidin-2-one]	< 1000 nM
Cc1cc(Cl)cc(-c2ncnc3cc(CN4C(=O)c5ccccc5C4=O)sc23)c1O[C@@H]1CNC[C@@H]1F [Example 149, 2-((4-(5-Chloro-2-(((3R,4S)-4-fluoropyrrolidin-3-yl)oxy)-3-methylphenyl)thieno[3,2-d]pyrimidin-6-yl)methyl)isoindoline-1,3-dione]	< 1000 nM
